Test results from patent US6262108A, “Medicinal use of cromoglycic acid compounds” (Kyoto Pharmaceutical Industries, Ltd., priority 1997, dated 2001).
Entries after “also recorded” stand apart in the source; their conditions may differ.

Tests used:
[1] = tested on: type I and type IV allergic dermatitis; experiment: Type I and Type IV allergic dermatitis (repeat application of DNFB) auricle swelling; format: in vivo, male BALB/c mice; conditions: 100 mg/kg orally twice a day; for Increase in thickness of auricle by repeat application of 0.2% DNFB solution: mean ± standard error
Description: According to the method of Nagai et al., (Naoki Inagaki and Hiroichi Nagai, The 8th Spring Meeting of Japanese Society of Allergology, 1996), the inhibitory action of diethyl acetoacetylcromoglycate on type I and type IV allergic dermatitis was examined.
According to this method, a type I allergic reaction is induced in addition to a type IV allergic reaction due to repeat contact sensitization with antigen. […] The method is described in detail in the following.
Male 6-week-old BALB/c mice (Japan SLC, Inc.) were divided into two groups of control group and administration group including 10 mice each. A 0.5% methylcellulose solution (10 ml/kg) was forcefully administered orally to the control group and diethyl acetoacetylcromoglycate (100 mg/kg) was forcefully administered orally to the administration group twice a day for 36 days for each group. The thickness of both auricles of each mouse was measured with a dial thickness gauge (Mitutoyo Co.) under ether anesthesia before initial administration on day 1 after administration. After the initial administration on day 8 of the administration, the thickness of both auricles of each mouse was measured with a dial thickness gauge under ether anesthesia. 0.2% Dinitrofluorobenzene (DNFB) dissolved in acetone-olive oil (mixing ratio 3:1) was applied by 25 μl to the left and right auricles. After 24 hours from the application, the thickness of both auricles of each mouse was measured under ether anesthesia with a dial thickness gauge. Thereafter, similar manipulation was repeated 4 times at a week interval. At the 5th application, the thickness of both auricles was also measured at 1 and 4 hours after the application.
Changes in the thickness of both auricles of each mouse were calculated from the measurement values of the thickness of the both auricles before the initial application. The average of changes in the thickness of the left and right auricles of each mouse was taken as the variation of the mouse.

[2] = tested on: collagen-induced arthritis in mice; experiment: Collagen-induced arthritis in mice: arthritis score; format: in vivo, male DBA/1J mice; conditions: for Arthritis score: mean ± standard error (n = 8-10)
Description: (§1) According to the method of Courtenay et al. (Courtenay, J. S. et al.: Immunization against heterologous type II collagen induces arthritis in mice. Nature, 283:666, 1980), male DBA/1J mice (CHARLES RIVER JAPAN INC.) were sensitized with bovine type II collagen to induce collagen-induced arthritis (rheumatoid arthritis). After the onset of arthritis, diethyl acetoacetylcromoglycate was orally administered and its inhibitory effect was examined. The method is detailed in the following.
Male DBA/1J mice (8-week-old) were pre-bred for one week and divided into the following 3 groups based on body weight (8-10 per group).
Bovine type II collagen (2 mg) was dissolved in 0.01M acetic acid (1 ml) and suspended in an equivalent amount of Freund's complete adjuvant, and 0.1 ml thereof was intradermally injected to the control group and treated group at 9 weeks of age at the base of the tail, followed by the second injection three weeks later at 12 weeks of age.
Starting from day 31 after the initial injection of collagen till the end of the treatment, the mice of each group were scored (arthritis score) twice a week for the levels of redness, swelling and stiffness of four limbs by a blind test method. The scores were taken according to a method similar to the method of Bjork et al. (Bjork, J. and Kleinau, S.: Paradoxical effects of LS-2616 (Linomide) treatment in the type II collagen arthritis model in mice, Agents and Actions, 27:319-321, 1989.), wherein normal was rated 0 point, inflammation on one digit was 1 point, inflammation on two or more digits and normal metacarpal region and metatarsal region of the limbs, or inflammation on one digit and metacarpal region and metatarsal region of the limbs was 2 points, and inflammation on digits and metacarpal region and metatarsal region of the limbs was 3 points, each mouse scoring 0 to 12 points in total.
The treatment was continued for 6 weeks from day 41 from the initial injection of collagen. […]

[3] = tested on: anti-bovine type II collagen antibody; experiment: Anti-bovine type II collagen antibody titer in blood (ELISA) in collagen-induced arthritis mice; format: in vivo, male DBA/1J mice; conditions: 100 mg/kg/day orally
Description: as §1
(§2) Male DBA/1J mice (8-week-old) were pre-bred for one week and divided into the following 3 groups based on body weight (8-10 per group). […]
At day 42 after the initiation of treatment, blood was taken from carotid artery and the mice were exsanguinated to death under ether anesthesia. The anti-bovine type II collagen antibody titer in blood was determined by the ELISA method according to the method of Stuart et al. (Stuart, J. M. et al.: Nature and specificity of the immune response to collagen in type II collagen-induced arthritis in mice, J. Clin. Invest., 69:673-683, 1982).

[4] = tested on: bone of feet and digits of the four limbs; experiment: X-ray score of bone destruction in collagen-induced arthritis mice; format: in vivo, male DBA/1J mice; conditions: 100 mg/kg/day orally
Description: as §1, §2
In addition, the whole body w as X-ray photographed and destruction state of the bone of feet and digits of the four limbs was scored (X-ray score) by a blind test according to the criteria of Gliman et al. (Gliman S. C. et al.: Immunological abnormalities in rats with adjuvant-induced ar thritis, II. Effect of antiarthritic therapy on immune function in relation to disease development, Int. J. Immunopharmacol. , 9:9-16, 1987), wherein normal was rated 0 point, destruction in one joint was 1 point, destruction in two or more joints, though not all joints, was 2 points, and destruction in all joints was 3 points, each mouse scoring 0 to 12 points in total.

Acute Toxicity Test = conditions: mouse, in vivo; oral, suspension, male ICR mice
Description: The cromoglycic acid compound prepared in the above Example 1 was orally administered to male ICR mice (3 per group) in the form of a suspension.

SMILES: CCOC(=O)c1cc(=O)c2c(OCC(COc3cccc4oc(C(=O)OCC)cc(=O)c34)OC(=O)CC(C)=O)cccc2o1 [Example 1, Diethyl Acetoacetylcromoglycate]
- Increase in thickness of auricle by repeat application of 0.2% DNFB solution ([1]; 1 hr after 5th application (type I allergic reaction), control 0.098 ± 0.012, p < 0.05): 0.058 ± 0.007 mm
- Increase in thickness of auricle by repeat application of 0.2% DNFB solution ([1]; 4 hr after 5th application, control 0.063 ± 0.007): 0.056 ± 0.007 mm
- Increase in thickness of auricle by repeat application of 0.2% DNFB solution ([1]; 24 hr after 1st application, control 0.011 ± 0.002): 0.012 ± 0.002 mm
- Increase in thickness of auricle by repeat application of 0.2% DNFB solution ([1]; 24 hr after 2nd application, control 0.048 ± 0.004, p < 0.05): 0.037 ± 0.003 mm
- Increase in thickness of auricle by repeat application of 0.2% DNFB solution ([1]; 24 hr after 3rd application, control 0.092 ± 0.009, p < 0.01): 0.061 ± 0.005 mm
- Increase in thickness of auricle by repeat application of 0.2% DNFB solution ([1]; 24 hr after 4th application, control 0.141 ± 0.012, p < 0.01): 0.095 ± 0.009 mm
- Increase in thickness of auricle by repeat application of 0.2% DNFB solution ([1]; 24 hr after 5th application, control 0.182 ± 0.015, p < 0.01): 0.122 ± 0.010 mm
- effect on swelling of the auricle (in words) ([1]; after the second application of DNFB, t-test with control group): significant inhibitory action on the swelling of the auricle after the second application
- Increase in thickness of auricle by repeat application of 0.2% DNFB solution ([1]; before 1st application, control 0.008 ± 0.003): 0.008 ± 0.002 mm
- Increase in thickness of auricle by repeat application of 0.2% DNFB solution ([1]; before 2nd application, control 0.033 ± 0.003): 0.029 ± 0.003 mm
- Increase in thickness of auricle by repeat application of 0.2% DNFB solution ([1]; before 3rd application, control 0.042 ± 0.005): 0.035 ± 0.003 mm
- Increase in thickness of auricle by repeat application of 0.2% DNFB solution ([1]; before 4th application, control 0.049 ± 0.004): 0.040 ± 0.005 mm
- Increase in thickness of auricle by repeat application of 0.2% DNFB solution ([1]; before 5th application, control 0.059 ± 0.006): 0.048 ± 0.005 mm
- effect on swelling of the auricle, type I allergic reaction (in words) ([1]; one hour after the fifth application of DNFB): significant inhibitory action on the swelling of the auricle
- effect on arthritis score (in words) ([2]; 100 mg/kg/day orally, day 38 after start of treatment, U-test with control group): inhibition of the symptoms of collagen-induced arthritis (rheumatoid arthritis); also recorded: significant improvement in the arthritis scores
- Arthritis score ([2]; 100 mg/kg/day orally, day 79 after initial injection of collagen (day 38 after starting treatment), control 10.70 ± 0.49, p < 0.01): 6.36 ± 1.30
- Arthritis score ([2]; day 38 after initial injection of collagen (3 days before treatment)): 1.80 ± 0.61
- effect on anti-bovine type II collagen antibody titer in blood (in words) ([3]; day 42 after initiation of treatment, ANOVA with control group): significant decrease in anti-bovine type II collagen antibody titer in blood; also recorded: inhibition of an increase in the anti-bovine collagen antibody titer in blood
- Anti-bovine type II collagen antibody titer in blood ([3]; day 83 after initial injection of collagen (day 42 after starting treatment), mean ± standard error (n = 8-10), control 0.301 ± 0.005, p < 0.01): 0.203 ± 0.010
- effect on X-ray score / bone destruction (in words) ([4]; day 42 after starting treatment, U-test with control group): signifiicant improvement in X-ray so re; also recorded: inhibition of bone destruction of feet and digits of the four limbs
- X-ray score ([4]; day 83 after initial injection of collagen (day 42 after starting treatment), mean ± standard error (n = 8-10), control 10.20 ± 0.40, p < 0.01): 5.80 ± 1.10
- LD50 (Acute Toxicity Test): > 1000 mg/kg
